Test results: US5731432A, “Inhibitors of adenosine monophosphate deaminase” (priority 1994, dated 1998)
Read-outs that look alike come from different tables or passages of the source.

Key:
AMPDA = details: reported; kind of constant not stated; cited from earlier work
ADA = target: T1, ADA (Homo sapiens, UniProt P00813); details: reported; kind of constant not stated; cited from earlier work
T1 sequence (P00813 1-363): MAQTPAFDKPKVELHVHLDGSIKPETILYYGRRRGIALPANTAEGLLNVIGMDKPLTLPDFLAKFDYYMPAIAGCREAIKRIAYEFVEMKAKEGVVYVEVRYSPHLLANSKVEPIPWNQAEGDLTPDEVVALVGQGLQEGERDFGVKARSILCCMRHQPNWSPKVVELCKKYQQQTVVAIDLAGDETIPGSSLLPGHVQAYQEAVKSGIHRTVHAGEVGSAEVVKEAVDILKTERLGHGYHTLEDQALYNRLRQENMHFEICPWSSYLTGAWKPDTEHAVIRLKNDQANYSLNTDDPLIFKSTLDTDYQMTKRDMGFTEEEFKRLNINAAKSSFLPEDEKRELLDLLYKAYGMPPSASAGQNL

[1] = target: AMPDA activity from porcine heart; assay: AMP Deaminase Assay (Example A); type: biochemical; details: for Ki: porcine heart AMPDA, 37° C., pH 6.5, competitive inhibition assumed; for Selectivity Ratio: selectivity ratio=[ADA Ki/Km]/[AMPDA Ki/Km], K = 1,000
Description: Catalysis was initiated by the addition of enzyme to the otherwise complete reaction mixture, and terminated after 5 minutes by injection into an HPLC system. Activities were determined from the amount of IMP formed during 5 minutes.

[2] = target: T2, adenosine deaminase (ADA) from calf intestinal mucosa (Bos taurus, UniProt P56658); assay: Adenosine Deaminase Assay (Example B); type: biochemical
T2 construct: adenosine deaminase (ADA) from calf intestinal mucosa; from tissue; host or cells: calf intestinal mucosa
T2 sequence (P56658 1-363): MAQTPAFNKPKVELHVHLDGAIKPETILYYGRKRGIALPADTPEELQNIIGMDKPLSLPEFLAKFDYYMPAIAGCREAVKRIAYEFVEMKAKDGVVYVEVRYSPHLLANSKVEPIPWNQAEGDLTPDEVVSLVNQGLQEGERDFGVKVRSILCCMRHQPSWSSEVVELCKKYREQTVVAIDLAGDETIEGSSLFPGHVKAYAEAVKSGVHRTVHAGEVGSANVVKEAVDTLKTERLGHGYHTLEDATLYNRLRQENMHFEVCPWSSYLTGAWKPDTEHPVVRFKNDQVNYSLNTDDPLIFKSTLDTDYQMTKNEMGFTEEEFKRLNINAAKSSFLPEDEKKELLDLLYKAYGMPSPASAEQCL
Description: Inhibition of adenosine deaminase (ADA) from calf intestinal mucosa was determined spectrophotometrically at pH 7.0 using one of the following two assays:
(1) Direct Assay: The reaction system mixture contained inhibitor, ~0.001 units ADA, and 40 mM potassium phosphate in 1 ml and at 37° C. The concentration of the substrate adenosine was varied from 20 to 100 μM.
The reaction was initiated by addition of adenosine and monitored continuously at 340 nm for 7 minutes as the decrease in absorbance reflects oxidation of NADH.

[3] = system: Neutrophil-myocyte adhesion; assay: Inhibition of Neutrophil-Myocyte Adhesion (Example C); type: cell-based; details: read-out: Neutrophil-Myocyte Adhesion Inhibition IC50
Description: Isolated neutrophils and myocytes were stimulated with the cytokine, TNF-α, and incubated in the presence of the test compound. Neutrophil-myocyte adhesion was determined as described by […], et al., J. Clin. Invest.

isolated rat hearts = assay: Functional recovery in isolated rat heart model of ischemia-reperfusion injury (Example D); details: low flow ischemia then 30 minutes reperfusion
Description: The ability of AMP deaminase inhibitors of the present invention to improve the recovery of post-ischemic function was examined in an isolated rat heart model of ischemia-reperfusion injury.
Isolated rat hearts were cannulated via the ascending aorta and attached to a perfusion apparatus according to the method of Langendorff. The hearts were perfused at a constant pressure of 100 cm of H2 O with a modified Krebs-Hanseleit buffer (pH 7.4) at 37° C. Left ventricular developed pressures (LVDP) were monitored continuously using a latex balloon attached to a pressure transducer. Coronary flows were measured gravimetrically by timed collection of pulmonary effluent. Following equilibration of the hearts for a period of 30 minutes, the hearts were subjected to […] of low flow ischemia, by reducing the perfusion pressure to 10 cm of H2 O, and then reperfused for 30 minutes by restoring the pressure to its original level (100 cm of H2 O). […] Compound 1 m provided recovery of LVDP to 83±2% compared to the placebo value of 65±2% when added to the perfusion to give a concentration of 0.3 μM.

Rat Focal Stroke Model = assay: Rat model of ischemic brain injury / focal stroke (Example F); type: in vivo
Description: Each rat is anesthetized with halothane and placed on a heating pad hooked up to a temperature regulator and connected to rectal probe. EEG electrodes are then inserted into the temporalis muscle bilaterally in between the eye and the ear. A midline incision is made to expose the left Common Carotid Artery (CCA). The internal Carotid Artery (ICA)is isolated and carefully separated from the adjacent vagus nerve. Following ligation of various vessels the ICA should be the only remaining extracranial branch of the CCA. Two 5-0 silk sutures are tied loosely around the external carotid artery (ECA)and microvascular clips placed on both the CCA (proximal to the bifurcation)and the ICA (in between the first and the second bifurcation). The ECA above the bifurcation is coagulated and the two sutures are then cut below the coagulation. A 25 mm length 4-0 nylon suture, its tip rounded by heating near a fine tipped cauterizer, is introduced into the ECA lumen. 20-22 mm of the suture is inserted into the ECA stump. The suture around the ECA is tightened to hold the occluding suture in place and EEC reading is checked to confirm occlusion by the appearance of a flat line. At this point the intraluminal suture has blocked the origin of the […] (MCA), occluding all sources of blood flow from the interior Carotid Artery (ICA), the […] (ACA), and the posterior cerebral artery (PCA). At 105 min later the suture is gently retracted under halothane anesthesia to allow blood flow back into the middle cerebral artery. The neck incision is closed and animals allowed to recover from anesthesia. At 24 hrs animals are evaluated for behavioral deficits, sacrificed, transcardial perfused, brains removed and TTC stained for visualization of infarcted region using a computer assisted system.
The application of compound 1d is shown in the time line diagram. Thirty minutes prior to induction of ischemia (SUTURE IN) Compound 1d in isotonic saline solution was infused for 15 min at a loading dose of 250 μg/kg/min (50 μl/min)followed by maintenance rate of 50 μg/kg/min for the remaining 12 hrs.

[4] = calf intestinal mucosa ADA, pH 7.0, read-out: ADA Ki
[5] = neutrophils and myocytes stimulated with TNF-α
[6] = Treated, Post reperfusion, mean ± sem

Structure (SMILES) | Ki [1] [nM] | Ki [2, 4] [µM] | Selectivity Ratio [1] | IC50 [3, 5] [µM] | also measured
OC[C@H]1O[C@@H](n2cnc3c2N=CNC[C@H]3O)[C@H](O)[C@@H]1O [Coformycin, coformycin] |  |  |  |  | inhibition of AMPDA (AMPDA): 1000 nM; inhibition of ADA (ADA): < 0.2 nM
CCCCCCCn1cnc2c1N=CNCC2O (stereo not shown) [compound 1a, 3-heptylcoformycin aglycone] | 10000 | 0.35 |  |  | IC50 [3]: 12 ± 6 µM; recovery of LVDP (isolated rat hearts; 3 μM in perfusion, placebo 69±1%): 83±3%
CCCCCCCn1cnc2c1N=CNCC2(C)O (stereo not shown) [compound 1b, 3-heptyl-8-methylcoformycin aglycone] | 36000 | 12 | 6 |  | 
CC(C)=CCC[C@H](C)CCn1cnc2c1N=CNCC2O (stereo partly drawn) [compound 1c, (3'S)-3-(3',7'-dimethyloct-6'-enyl)coformycin aglycone] | 1100 | 1.9 | 29 | 5.1 ± 2.5 | 
OC1CNC=Nc2c1ncn2C1CCCCCC1 (stereo not shown) [compound 1d, 3-cycloheptylcoformycin aglycone] | 8000 | 7.9 | 17 | 4.3 ± 1.3 | Blood Pressure (Rat Focal Stroke Model; [6]): 115 ± 4 mm Hg; Temperature (Rat Focal Stroke Model; [6]): 38.6 ± 0.2 °C; Blood Pressure (Rat Focal Stroke Model; Treated, Pre, mean ± sem): 102 ± 5 mm Hg; Temperature (Rat Focal Stroke Model; Treated, T = 0, mean ± sem): 37.4 ± 0.2 °C; Blood Pressure (Rat Focal Stroke Model; Treated, T = 60, mean ± sem): 84 ± 9 mm Hg; Temperature (Rat Focal Stroke Model; Treated, T = 60, mean ± sem): 37.5 ± 0.2 °C; pCO2 (Rat Focal Stroke Model; Treated, mean ± sem): 37.8 ± 1.3; pH (Rat Focal Stroke Model; Treated, mean ± sem): 7.379 ± 0.015; pO2 (Rat Focal Stroke Model; Treated, mean ± sem): 142.3 ± 10.0; effect on physiological parameters such as blood pressure, heart rate, body temperature and blood gases (Rat Focal Stroke Model; continuous infusion): no apparent effect; reduction of infarct volume (Rat Focal Stroke Model; infusion 250 μg/kg/min for 15 min then 50 μg/kg/min, vs control): 52%; infarct volume (Rat Focal Stroke Model; treated, n=8, control 139±31 (n=7), p=0.05): 71±28 mm^3
CC1(C)[C@H]2CC[C@H](Cn3cnc4c3N=CNCC4O)[C@@H]1C2 (stereo partly drawn) [compound 1e, (l'S,2'S,5'S)-3-(6',6'-dimethyl[3,1,1]-bicyclohept-2'-methyl)coformycin aglycone] | 1700 | > 160 | > 1.6K | 24 ± 3 | 
Cc1ccccc1CCCn1cnc2c1N=CNCC2O (stereo not shown) [compound 1f, 3-(3'-(2"-methylphenyl)propyl)coformycin aglycone] | 2100 | 0.042 | 0.34 | 1.4 ± 0.45 | 
CC1=Nc2c(ncn2CCCc2ccccc2C)C(O)CN1 (stereo not shown) [compound 1g, 5-methyl-3-(3'-(2"-methylphenyl)propyl)coformycin aglycone] | 11000 | > 100 | > 150 |  | 
[N-]=[N+]=NC1CNC=Nc2c1ncn2CCCc1ccccc1 (stereo not shown) [compound 1h] | 6600 | 0.063 | 0.16 |  | 
CCCOc1ccc(CCCn2cnc3c2N=CNCC3O)cc1 (stereo not shown) [compound 1i, 3-(3'-(4"-propoxyphenyl)propyl)coformycin aglycone] | 3600 | 0.006 | 0.03 |  | 
O=C(O)C(CCCCn1cnc2c1NC=NCC2O)Cc1ccccc1 (stereo not shown) [compound 1j, 3-(5'-carboxy-6'-phenylhexyl)coformycin aglycone] |  | > 200 |  | 0.045 ± 0.01 | 
O=C(O)C(CCCCn1cnc2c1N=CNCC2O)C(=O)OCc1ccccc1 (stereo not shown) [compound 1k, 3-(5'-carboxy-5'-carbobenzyloxypentyl)coformycin aglycone] | 360 | > 1000 | > 47K |  | 
CC(CCCCn1cnc2c1N=CNCC2O)(C(=O)O)C(=O)NCc1ccccc1 (stereo not shown) [compound 1l, 3-(5'-carbox-N-benzylamido-5'-carboxyhexyl)coformycin aglycone] | 2700 | > 1000 | > 6.3K |  | 
Cc1ccc(C(=O)O)cc1CCn1cnc2c1N=CNCC2O (stereo not shown) [compound 1m, 3-(2'-(3"-carboxy-6"-methylphenyl)ethyl)coformycin aglycone] | 97 | > 1000 | > 175K |  | IC50 [3]: 0.03 ± 0.01 µM; recovery of LVDP (isolated rat hearts; 0.3 μM in perfusion, placebo 65±2%): 83±2%
Cc1ccc(-c2nn[nH]n2)cc1CCn1cnc2c1N=CNCC2O (stereo not shown) [compound 1n, 3-(2'-(6"-methyl-3"-(tetrazol-5'"-yl)phenyl)ethyl)coformycin aglycone] | 1600 |  | > 2.1K |  | Ki [2]: > 200 µM
O=C(O)c1cc(CCn2cnc3c2N=CNCC3O)cs1 (stereo not shown) [compound 1o, 3-(2'-(2"-carboxythiophen-4"-yl)ethyl)coformycin aglycone] | 2200 | > 6 | 590 | 8 ± 2 | 
O=C(O)c1cc(CCn2cnc3c2N=CNCC3O)c2ccccc2c1 (stereo not shown) [compound 1p, 3-(2'-(3"-carboxynaphthyl)ethyl)coformycin aglycone] | 20 | > 1000 | > 850K |  | 
OC[C@H]1O[C@@H](n2cnc3c2NC=NC[C@H]3O)C[C@@H]1O [deoxycoformycin] |  |  |  |  | inhibition of AMPDA (AMPDA): 1000 nM
